From patent US20250051327A1, “MALT-1 MODULATORS” (EXSCIENTIA AI LIMITED, priority 2020, published 2025)

system: IL-2 secretion by human effector memory T cells (TEM); assay: Effector memory T cells IL-2 release assay; format: cell-based; settings: T-cell; human CD4+ effector memory T cells, CD3/CD28 bead stimulation, 24 h; read-out: CD4TC IL2 IC50
Experimental: Effector Memory T Cells IL-2 Release Assay
Test compound-mediated inhibition of NFκB signalling in T cells was assessed by quantification of the IL-2 secretion by human effector memory T cells (TEM) upon treatment and stimulation. Human TEM cells were isolated from buffy coats of healthy donors obtained from the French blood bank. First, peripheral blood mononuclear cells (PBMC) were purified from buffy coats diluted 1:1 with DPBS (Gibco, cat #14190-094) by Pancoll (PAN BIOTECH, cat #P04-60500) density gradient centrifugation at 400×g for 20 minutes. TEM cells were further enriched by negative immuno-magnetic cell sorting using a human CD4+ Effector Memory T Cell Isolation Kit (Miltenyi, cat #130-094-125) according to the manufacturer's instructions. Aliquots of 3×10E6 purified TEM cells were kept frozen in Cryo-SFM medium (PromoCell, cat #C-29912) in gas phase nitrogen until used. Cell purity was verified by flow cytometry analysis of 200 000 PFA-fixed cells previously labelled with monoclonal antibodies anti-CD4-PerCP-Cy5.5 (BD Pharmigen, cat #332772), anti-CD8-V500 (BD Biosciences, cat #561617), anti-CD14-Pacific Blue (Biolegend, cat #325616), anti-CD45 RA-FITC (Biolegend, cat #304106) and anti-CCR7-APC (in CD4+ Effector Memory T Cell Isolation Kit, Miltenyi, cat #130-094-125).
TEM cells were resuspended in complete RPMI medium composed of: RPMI 1640 (Gibco, cat #31870-025), 10% heat inactivated fetal bovine serum (Sigma, cat #F7524), 2 mM GlutaMAX (Gibco, cat #35050-038), 1 mM sodium pyruvate 100× (Gibco, cat #11360-039), 1% MEM non-essential amino acids solution (Gibco, cat #11140-035) and 100 U/mL penicillin, 100 μg/mL streptomycin (Sigma-Aldrich, cat #11074440001). 5,000 cells per well were plated onto flat clear bottom 384 well plates (Corning, cat #3770). 5,000 Dynabeads Human T-Activator CD3/CD28 (Gibco, cat #11132D) were added to each well for cell stimulation. Finally, 10 doses of test compound, originally prepared in DMSO by serial semi-log step dilution, were also added to cells in triplicate wells. Final DMSO concentration in wells was 0.1% in a total volume of 100 μL complete medium. Plates were incubated for 24 h at 37° C. in 5% CO2 atmosphere. After incubation, cell suspensions were centrifuged at 400×g and culture supernatants were recovered and stored at −80° C. Cell viability was assessed by flow cytometry after staining the cells with Fixable Viability Dye eFluor 780 (Invitrogen, cat #65-0865-14). IL-2 levels were determined in cell supernatants using an HTRF human IL-2 detection kit (Cisbio, cat #62HIL02PEH). IL-2 data at the different compound doses were fitted to a 4-parameter logistic curve to determine IC50 values, corresponding to the compound concentration leading to 50% reduction of the maximal IL-2 levels observed in each experiment. Viability data were analysed similarly to exclude cytotoxicity as a cause of IL-2 decrease (see Table 1).

Compound | IC50 [µM]
CN(C(=O)C1CCS(=O)(=O)CC1)[C@@H](c1ccc(N2CCCc3c2cnc2cc(Cl)nn32)nc1)C(F)(F)F [CPD0019212, N-[(1S)-1-(6-{4-chloro-2,3,7,10-tetraazatricyclo[7.4.0.0^2,6]trideca-1(9),3,5,7-tetraen-10-yl}pyridin-3-yl)-2,2,2-trifluoroethyl]-N-methyl-1,1-dioxo-1λ^6-thiane-4-carboxamide] | 0.452
CN(C(=O)[C@H]1CC[S@](=N)(=O)CC1)[C@@H](c1ccc(N2CC(C)(C)Cc3c2cnc2cc(Cl)nn32)cc1)C(F)(F)F [CPD0073497, (1rel r,4rel r)-N-[(1S)-1-(4-{4-chloro-12,12-dimethyl-2,3,7,10-tetraazatricyclo[7.4.0.0^2,6]trideca-1(9),3,5,7-tetraen-10-yl}phenyl)-2,2,2-trifluoroethyl]-1-imino-N-methyl-1-oxo-1λ^6-thiane-4-carboxamide] | 0.183
CN(C(=O)C1CCS(=O)(=O)CC1)[C@@H](c1ccc(N2CC[C@]3(CCOC3)c3c2cnc2cc(Cl)nn32)cc1)C(F)(F)F [CPD0073763, N-[(1S)-1-[4-[(13rel-S)-4-chlorospiro[2,3,7,10-tetrazatricyclo[7.4.0.0^2,6]trideca-1(9),3,5,7-tetraene-13,3′-tetrahydrofuran]-10-yl]phenyl]-2,2,2-trifluoro-ethyl]-N-methyl-1,1-dioxo-1λ^6-thiane-4-carboxamide] | 0.109
COc1ccc2ncc(Nc3ccc([C@H](N(C)C(=O)C4CCS(=O)(=O)CC4)C(F)(F)F)cc3)c([C@@H](C)OC)c2n1 (relative stereo) [CPD0019171, N-methyl-1,1-dioxo-N-[(1S)-2,2,2-trifluoro-1-[4-({6-methoxy-4-[(1 rel R)-1-methoxyethyl]-1,5-naphthyridin-3-yl}amino)phenyl]ethyl]-1λ^6-thiane-4-carboxamide] | 0.11
CN(C(=O)C1CCS(=O)(=O)CC1)[C@@H](c1ccc(N2CCC3(CC3)c3c2cnc2cc(Cl)nn32)nc1)C(F)(F)F [CPD0021660, N-[(1S)-1-(6-{4′-chloro-2′,3′,7′,10′-tetraazaspiro[cyclopropane-1,13′-tricyclo[7.4.0.0^2,6]tridecane]-1′(9′),3′,5′,7′-tetraen-10′-yl}pyridin-3-yl)-2,2,2-trifluoroethyl]-N-methyl-1,1-dioxo-1λ^6-thiane-4-carboxamide] | 0.112
COc1ccc2ncc(Nc3ccc([C@H](N(C)C(=O)[C@H]4CNC(=O)C4)C(F)(F)F)cc3)c([C@H](C)OC)c2n1 (relative stereo) [CPD0074562, (3 rel R)-N-methyl-5-oxo-N-[(1S)-2,2,2-trifluoro-1-[4-[[6-methoxy-4-[(1 rel S)-1-methoxyethyl]-1,5-naphthyridin-3-yl]amino]phenyl]ethyl]pyrrolidine-3-carboxamide] | 0.068
C[C@H]1CCN(c2ccc([C@H](N(C)C(=O)[C@H]3CC[S@](=N)(=O)CC3)C(F)(F)F)cc2)c2cnc3cc(F)nn3c21 (relative stereo) [CPD0074553, (1rel s, 4rel s)1-imino-N-methyl-1-oxo-N-[(1S)-2,2,2-trifluoro-1-[4-[(13 rel S)-4-fluoro-13-methyl-2,3,7,10-tetrazatricyclo[7.4.0.0^2,6]trideca-1(9),3,5,7-tetraen-10-yl]phenyl]ethyl]thiane-4-carboxamide] | 0.162

molecular target: Recombinant human MALT-1 (amino acids 340-824) (Homo sapiens (Human), UniProt Q9UDY8); assay: MALT-1 inhibition assay (fluorogenic substrate Ac-LRSR-Rh110-DP); format: biochemical; settings: recombinant human MALT-1, substrate Ac-LRSR-Rh110-DP
Experimental: MALT-1 paracaspase activity was measured using the fluorogenic substrate Ac-LRSR-Rh110-DP (purchased from Biosantan GmbH). […] The reaction was initiated by addition of substrate. Final concentrations of MALT-1 and substrate were 3 nM and 10 μM respectively. Reactions were incubated in the dark for 60 minutes at 25° C. […] Percent inhibition values were calculated from relative fluorescence units at different doses and fitted to a 4-parameter logistic curve to determine IC50 values (see Table 1).

Chain of Recombinant human MALT-1 (amino acids 340-824) (Q9UDY8 340-824): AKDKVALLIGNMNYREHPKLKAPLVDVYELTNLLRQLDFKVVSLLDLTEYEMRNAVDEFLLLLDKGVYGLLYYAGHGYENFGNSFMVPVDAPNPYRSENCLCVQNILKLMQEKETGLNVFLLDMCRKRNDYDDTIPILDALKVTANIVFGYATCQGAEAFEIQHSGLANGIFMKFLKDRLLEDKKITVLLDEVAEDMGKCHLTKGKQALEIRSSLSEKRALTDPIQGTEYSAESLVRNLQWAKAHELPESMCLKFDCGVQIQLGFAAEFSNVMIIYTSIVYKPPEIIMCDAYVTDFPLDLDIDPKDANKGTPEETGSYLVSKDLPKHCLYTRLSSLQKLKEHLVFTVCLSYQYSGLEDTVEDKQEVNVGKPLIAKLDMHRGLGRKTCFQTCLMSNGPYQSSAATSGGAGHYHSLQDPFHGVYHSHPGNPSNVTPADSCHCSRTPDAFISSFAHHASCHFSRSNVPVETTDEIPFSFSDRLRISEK

Compound | IC50 [µM]
COc1ccc2ncc(Nc3ccc([C@H](N(C)C(=O)C4CCN(C(C)=O)CC4)C(F)(F)F)cc3)c([C@H]3CCOC3)c2n1 [CPD0082479] | 0.111
C[C@@H]1CCc2c(cnc3cc(Cl)nn23)N1c1ccc([C@H](N(C)C(=O)[C@H]2CC[S@@](=N)(=O)CC2)C(F)(F)F)cc1 (relative stereo) [CPD0074552, (1rel s 4rel s) N-[(1S)-1-[4-[(11-rel R)-4-chloro-11-methyl-2,3,7,10-tetrazatricyclo[7.4.0.0^2,6]trideca-1(9),3,5,7-tetraen-10-yl]phenyl]-2,2,2-trifluoro-ethyl]-1-imino-N-methyl-1-oxo-thiane-4-carboxamide] | 0.078
CN(C(=O)[C@H]1CC(=O)N1)[C@@H](c1ccc(N2CCCc3c2cnc2cc(Cl)nn32)cc1)C(F)(F)F [CPD0075869, (2R)-N-[(1S)-1-[4-(4-chloro-2,3,7,10-tetrazatricyclo[7.4.0.0^2,6]trideca-1(9),3,5,7-tetraen-10-yl)phenyl]-2,2,2-trifluoro-ethyl]-N-methyl-4-oxo-azetidine-2-carboxamide] | 0.075
COc1ccc2ncc(Nc3ccc([C@@H](N(C)C(=O)[C@H]4CC[S@@](=N)(=O)CC4)C(F)(F)F)cc3)c([C@@H](C)OC)c2n1 (stereo in doubt) [CPD0077188, (1 rel-r,4rel-r)-1-imino-N-methyl-1-oxo-N-[(1R)-2,2,2-trifluoro-1-[4-({6-methoxy-4-[(1 rel-R)-1-methoxyethyl]-1,5-naphthyridin-3-yl}amino)phenyl]ethyl]-1λ^6-thiane-4-carboxamide] | 0.255
N-[(1S)-1-[4-[[2-chloro-8-[(1S)-1-methoxyethyl]imidazo[1,2-b]pyridazin-7-yl]amino]phenyl]-2,2,2-trifluoro-ethyl]-N-methyl-1,1-dioxo-thiane-4-carboxamide [CPD0084508] | 0.182
C[C@@H]1CCN(c2ccc([C@H](N(C)C(=O)[C@H]3CNC(=O)C3)C(F)(F)F)cc2)c2cnc3cc(Cl)nn3c21 [CPD0074560] | 0.043
COc1ccc2ncc(Nc3ccc([C@H](N(C)C(=O)C4CCS(=O)(=O)CC4)C(F)(F)F)cc3)c(C(=O)N3CCC3)c2n1 [CPD0074046, N-[(1S)-1-[4-[[4-(azetidine-1-carbonyl)-6-methoxy-1,5-naphthyridin-3-yl]amino]phenyl]-2,2,2-trifluoro-ethyl]-N-methyl-1,1-dioxo-thiane-4-carboxamide] | 0.494
CN(C(=O)[C@H]1CCN(C(=O)CO)C1)[C@@H](c1ccc(N2CCCc3c2cnc2cc(F)nn32)cc1)C(F)(F)F [CPD0075878] | 0.111
CN(C(=O)[C@@H]1CNC(=O)O1)[C@@H](c1ccc(N2CCCc3c2cnc2cc(Cl)nn32)cc1)C(F)(F)F (single isomer, unassigned) [CPD0075573] | 0.197
CN(C(=O)C1CC(O)C1)[C@@H](c1ccc(N2CCCc3c2cnc2cc(Cl)nn32)cc1)C(F)(F)F (stereo partly drawn) [CPD0073055] | 0.046
CN(C(=O)[C@@H]1CNC(=O)N1)[C@@H](c1ccc(N2CCCc3c2cnc2cc(Cl)nn32)cc1)C(F)(F)F (relative stereo) [CPD0075578, (4rel S)-N-[(1S)-1-[4-(4-chloro-2,3,7,10-tetrazatricyclo[7.4.0.0^2,6]trideca-1(9),3,5,7-tetraen-10-yl)phenyl]-2,2,2-trifluoro-ethyl]-N-methyl-2-oxo-imidazolidine-4-carboxamide] | 0.051
COc1ccc2ncc(Nc3ccc([C@H](N(C)C(=O)C4CCS(=O)(=O)CC4)C(F)(F)F)cc3)c(C3(F)COC3)c2n1 [CPD0076413, N-methyl-1,1-dioxo-N-[(1S)-2,2,2-trifluoro-1-[4-[[4-(3-fluorooxetan-3-yl)-6-methoxy-1,5-naphthyridin-3-yl]amino]phenyl]ethyl]thiane-4-carboxamide] | 0.109
CO[C@@H](C)c1c(Nc2ccc([C@H](N(C)C(=O)C3CCN(C(=O)CO)CC3)C(F)(F)F)cc2)cnn2cc(Cl)nc12 [CPD0084141, N-[(1S)-1-[4-[[2-chloro-8-[(1S)-1-methoxyethyl]imidazo[1,2-b]pyridazin-7-yl]amino]phenyl]-2,2,2-trifluoro-ethyl]-1-(2-hydroxyacetyl)-N-methyl-piperidine-4-carboxamide] | 0.043
COc1ccc2ncc(Nc3ccc([C@H](N(C)C(=O)C4CCN(C(=O)CO)CC4)C(F)(F)F)cc3)c([C@H]3CCOC3)c2n1 [CPD0082481] | 0.073
